Source: PubChem BioAssay (NCI)
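Where inhibition never reached the appropriate level, the endpoint shown equals the highest concentration tested. Otherwise, values were interpolated linearly from a five-concentration, 48-hour dose response in 96-well plates. GI50 is the concentration that inhibits growth by half. TGI denotes the concentration required for complete inhibition of growth.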

What was measured:
Experiment in all cases: growth of human tumour cells (NCI), 48 h
SK-MEL-28 melanoma = tested on: SK-MEL-28 melanoma
HCC-2998 colon = tested on: HCC-2998 colon
RXF 393 renal = tested on: RXF 393 renal
COLO 205 colon = tested on: COLO 205 colon
K-562 leukemia = tested on: K-562 leukemia
SN12C renal = tested on: SN12C renal
MCF7 breast = tested on: MCF7 breast
M14 melanoma = tested on: M14 melanoma
MDA-MB-435 = tested on: MDA-MB-435
T-47D breast = tested on: T-47D breast

Row | Structure (SMILES) | TGI (SK-MEL-28 melanoma) [µM] | TGI (HCC-2998 colon) [µM] | TGI (RXF 393 renal) [µM] | TGI (COLO 205 colon) [µM] | TGI (K-562 leukemia) [µM] | TGI (SN12C renal) [µM] | TGI (MCF7 breast) [µM] | TGI (M14 melanoma) [µM] | TGI (MDA-MB-435) [µM] | TGI (T-47D breast) [µM] | GI50 (SK-MEL-28 melanoma) [µM] | GI50 (HCC-2998 colon) [µM] | GI50 (MDA-MB-435) [µM] | GI50 (RXF 393 renal) [µM] | GI50 (T-47D breast) [µM] | GI50 (COLO 205 colon) [µM] | GI50 (K-562 leukemia) [µM] | GI50 (MCF7 breast) [µM]
1 | COc1ccc(C2CC(c3sc(Nc4ccc(C)cc4)nc3C)=NN2)cc1 (stereo unspecified) | 33.6 | 30.1 | 27.1 | 26.9 | 39.1 | 28.9 | 31.7 | – | – | – | – | – | – | – | – | – | – | –
2 | CCC(C)C(Nc1c2ccccc2nc2c(C(=O)NCCN(C)C)cccc12)C(=O)O (stereo unspecified) | 67.1 | – | – | > 100 | > 100 | > 100 | > 100 | 44.1 | 41.9 | – | – | – | – | – | – | – | – | –
3 | O=C(COc1cc(=O)oc2ccccc12)c1ccccc1 | > 100 | > 100 | – | – | > 100 | > 100 | > 100 | > 100 | – | > 100 | – | – | – | – | – | – | – | –
4 | CCOC(=O)/C(C(N)=O)=C(\O)C(=O)/C=C(\O)c1ccc(Cl)cc1 | 63.2 | – | 32.2 | 32.6 | – | 32.2 | 62.4 | 48.3 | 57.7 | 47.9 | – | – | – | – | – | – | – | –
5 | O=C1C=C(NCCc2ccc(O)c([N+](=O)[O-])c2)C(=O)c2[nH]cnc21 | 30.4 | > 100 | – | > 100 | 42.7 | > 100 | 78.1 | 32.3 | 33.7 | 40.7 | – | – | – | – | – | – | – | –
6 | O=C(NC(=S)Nc1ccc(Br)cc1)c1ccc2c(c1)Sc1ccccc1O2 | > 100 | – | – | > 100 | > 100 | > 100 | > 100 | > 100 | > 100 | > 100 | – | – | – | – | – | – | – | –
7 | Nc1cc(CO)cc(Nc2c3ccccc3nc3ccccc23)c1 | 32 | – | 31.4 | 23.8 | > 100 | 35.9 | 29.5 | 31.3 | 32.6 | 34.4 | – | – | – | – | – | – | – | –
8 | CCOP(=O)(OCC)C(c1ccc(F)cc1)N(C(=O)NC(F)(F)F)c1ccc(F)cc1 (stereo unspecified) | > 100 | > 100 | > 100 | > 100 | > 100 | > 100 | > 100 | > 100 | > 100 | – | – | – | – | – | – | – | – | –
9 | CC1[C@@]2(O[C@@H]3C=C4C5CCC6Cc7nc8c(nc7C[C@@]6(C)C5C[C@H](O)[C@@]4(C)[C@]13O)CC1CCc3c(cc4c5c3C(O)C[C@H]5[C@@H](C)C3(O4)OC(C)(C)CC3O)[C@]1(C)C8)O[C@@](C)(CO)C[C@@H]2O (stereo partly specified) | – | > 3.72 | 0.153 | 1.07 | > 3.72 | > 3.72 | > 3.72 | – | – | – | – | – | – | – | – | – | – | –
10 | O=S1(=O)OCCOS(=O)(=O)C1(F)Cc1ccccc1 | > 100 | > 100 | > 100 | > 100 | > 100 | > 100 | – | > 100 | > 100 | > 100 | – | – | – | – | – | – | – | –
11 | O=C1c2c(c3c4cc(F)ccc4oc3c3[nH]c4ccccc4c23)C(=O)N1O | > 100 | > 100 | 6.85 | > 100 | > 100 | – | > 100 | – | > 100 | > 100 | 2.89 | 2.53 | 3.02 | 1.92 | 1.59 | 4.15 | 2.09 | 0.596
12 | CN1C/C(=C\c2cccs2)C2=NN(c3ccccc3)C(c3cccs3)C2C1 (stereo unspecified) | > 100 | > 100 | – | > 100 | > 100 | > 100 | > 100 | > 68.3 | 3.86 | 96.3 | – | – | – | – | – | – | – | –
13 | COc1cc2ncnc(NS(=O)(=O)c3cc4ccccc4s3)c2cc1OC | – | > 100 | > 100 | > 100 | > 100 | > 100 | > 100 | > 100 | > 100 | > 100 | – | – | – | – | – | – | – | –
14 | COc1ccc(N2C(=O)C3ON(Cc4ccc(CC(N)=O)cc4)C(c4c5ccccc5c(C)c5ccccc45)C3C2=O)cc1 (stereo unspecified) | > 100 | – | 48.8 | – | 38 | > 100 | 46.6 | > 100 | > 100 | 80.1 | – | – | – | – | – | – | – | –
15 | CC1=C[P+](c2ccccc2)(c2ccccc2)c2ccccc2O1 | 62.5 | – | > 100 | 2.89 | > 100 | 5.29 | > 100 | > 100 | 12 | 7.79 | – | – | – | – | – | – | – | –
16 | COc1ccc(-c2c(C#N)c(N)[nH]c(=S)c2C#N)cc1 | > 100 | 72.2 | 98.3 | > 100 | > 100 | 84.3 | > 100 | > 100 | 95.5 | – | – | – | – | – | – | – | – | –
17 | CC(O)C(CO)NC(=O)C1CSSCC(NC(=O)C(N)Cc2ccccc2)C(=O)NC(Cc2ccccc2)C(=O)NC(Cc2c[nH]c3ccccc23)C(=O)NC(CCCCN)C(=O)NC(C(C)O)C(=O)N1 (stereo unspecified) | > 100 | – | > 100 | > 100 | > 100 | > 100 | > 100 | > 100 | > 100 | > 100 | – | – | – | – | – | – | – | –
18 | Cc1cc2ncn(CC(=O)O)c2cc1C | > 100 | – | > 100 | > 100 | > 100 | > 100 | > 100 | > 100 | > 100 | > 100 | – | – | – | – | – | – | – | –
19 | Cc1[nH]c(=O)nc(N/N=C/c2c3ccccc3c(Cl)c3ccccc23)c1C(=O)Nc1ccc(Cl)cc1 | > 100 | > 100 | – | – | > 100 | > 100 | > 100 | > 100 | > 100 | > 100 | – | – | – | – | – | – | – | –
20 | CCCCn1c(=O)[nH]c2c(N)ncnc21 | > 100 | > 100 | > 100 | > 100 | > 100 | > 100 | > 100 | > 100 | > 100 | – | – | – | – | – | – | – | – | –
21 | O=[N+]([O-])c1ccc(C[P+]2(c3ccccc3)CCCCC2)cc1 (tested in a mixture with another compound) | > 100 | > 100 | > 100 | > 100 | > 100 | > 100 | – | > 100 | – | – | – | – | – | – | – | – | – | –
22 | COc1cc(/C=C/C(=O)CC(=O)/C=C/c2cc(C)c(O)c(OC)c2)cc(C)c1O | > 100 | > 100 | – | > 100 | > 100 | > 100 | > 100 | > 100 | > 100 | > 100 | – | – | – | – | – | – | – | –
23 | CCC1(CC)C(=O)NC(=O)NC1=S | > 100 | – | > 100 | > 100 | > 100 | > 100 | – | > 100 | – | – | – | – | – | – | – | – | – | –
